Earlier results on three compounds are cited in patent publication US20230357868A1 (priority 2021, published 2023).

For series [1] the following is noted: LAMP visualization reagent.
For series [2], the system named is potato spindle tuber viroid (PSTVd). The note with it: LAMP reaction.

For `CCCN(CCCN(C)C)c1cc(/C=C2/Sc3ccccc3N2C)c2ccccc2[n+]1-c1ccccc1` [SYBR Green I], the Toxicity result in series [1] is reported as “Mutation enhancer”. In addition, in series [2], the Effect on amplification result is “Not inhibiting when used 0.5-1x”.

On to `O=S(=O)([O-])c1ccc2c(N=Nc3c(O)cc(S(=O)(=O)[O-])c4ccccc34)c(O)c(S(=O)(=O)[O-])cc2c1.[Na+].[Na+].[Na+]` [Hydroxynaphthol blue (HNB)], for which the Toxicity result in series [1] was “May cause eye irritation”. Moreover, the Effect on amplification entry in series [2] is reported as “None”.

Turning to `O=P([O-])([O-])OP(=O)([O-])[O-].[Mg+2].[Mg+2]` [Mg-pyrophosphate (Mg-PPi)], in series [2], the Effect on amplification entry is reported as “None”.
